Laboratory results as given in PMC9505254 (Pathogens, 2022).
“Also recorded” adds a separate entry of the source.

Tests used:
[1] = test system: S. aureus (ATCC 25923) preformed biofilm; assay: Reduction of preformed biofilm mass (crystal violet); type: cell-based, Staphylococcus aureus
Method: After the incubation period, the supernatant was removed carefully from each well and washed one time with sterile NaCl 0.15 M solution. […] The absorbances were obtained via a microplate reader (BioTek^TM Epoch, BioTek Instruments, Inc., Winooski, VT, USA) at 600 nm. The experiment was repeated three times. The assay to observe the preformed biofilm reduction was conducted the same as described above but with some adjustments. […] The microplates were incubated in the dark, at 37 ℃, for 24 h. After incubation, the biofilm was washed, dried, and stained, and absorbance was taken as above.

[2] = test system: S. aureus biofilm cells; assay: ROS overproduction (DCFH-DA, fluorescence microscopy); conditions: ciprofloxacin alone at 6.2, 0.2, 25 or 0.02 µg mL−1 (Figures 4 and 5)
Method: The ROS overproduction was determined following the method described by Bezerra et al. [13]. The assays were conducted as the same for PI analysis. Then, 20 μL of 2',7' […] diacetate (DCFH-DA, Sigma, St. Louis, MI, USA) was added and incubated in the dark for 30 min at 24 °C. Finally, the biofilms were washed with 0.15 M NaCl and observed under a fluorescence microscope (Olympus System BX 41, Tokyo, Japan) with an excitation wavelength of 488 nm and an emission wavelength of 525 nm.

[3] = test system: S. aureus (ATCC 25923) biofilm; assay: Inhibition of biofilm formation (crystal violet); type: cell-based; conditions: Staphylococcus aureus, ATCC25923, alone at 0.2 µg mL−1, 48 h, 37 °C, A600, triplicate
Method: The assay was made in flat-bottom 96-well polystyrene microplates as described by Bezerra et al.. The cell suspension was prepared using a single colony of S. aureus from a Petri dish with Mueller–Hinton broth (stock bacteria). The colony was transferred to Mueller–Hinton broth and incubated at 37 ℃ for 24 h. After, the cell suspension was standardized to a concentration of 10^6 cells mL^−1. […] The combination of peptide and antibiotic was made from the highest concentration of the peptide combined with the lowest antibiotic concentration and vice versa. After the incubation period, the supernatant was removed carefully from each well and washed one time with sterile NaCl 0.15 M solution. […] The absorbances were obtained via a microplate reader (BioTek^TM Epoch, BioTek Instruments, Inc., Winooski, VT, USA) at 600 nm. The experiment was repeated three times.

[4] = test system: type-B human erythrocytes
[5] = test system: type-A human erythrocytes
[6] = test system: type-O human erythrocytes

Molecule: O=C(O)c1cn(C2CC2)c2cc(N3CCNCC3)c(F)cc2c1=O [Ciprofloxacin]
- reduction of preformed biofilm ([1]; alone at 6.2 µg mL−1, 24 h biofilm, 24 h treatment, 37 °C, crystal violet, A600): 0%
- reduction of preformed biofilm ([1]; alone at 25 µg mL−1): 8%
- reduction of the biomass of preformed biofilm ([1]; ciprofloxacin alone at the Figure 1D concentrations (0.02, 0.39, 0.78, 6.2 µg mL−1)): not effective
- reduction of the biomass of preformed biofilm ([1]; each alone at the concentrations of the two Figure 1C combinations (RcAlb-PepI 0.04 and 0.2; ciprofloxacin 25 and 6.2 µg mL−1)): not effective
- ROS overproduction [2]: did not induce ROS; also recorded: not able to induce ROS accumulation
- inhibition at 0.2 µg/mL [3]: 10%

Molecule: Triton X-100
- % Hemolysis Type-B Blood [4]: 100 ± 0.001%
- % Hemolysis Type-A Blood [5]: 100 ± 0.001%
- % Hemolysis Type-O Blood [6]: 100 ± 0.005%
